Measured values: US5216024A, “Cell growth inhibitors and methods of treating cancer and cell proliferative diseases” (Baylor College of Medicine, priority 1988, dated 1993)
“Also recorded” adds a separate entry of the source. Like-named read-outs stand apart in the source and are kept apart here.

Legend:
[1] = tested on: estradiol stimulation of uterine growth (rat uterus); assay: Uterotropic assay: block of estradiol stimulation of uterine growth in immature female rats; format: in vivo; details: for GROWTH INHIBITION (%): 10 μg compound, block of estradiol stimulation in the rat uterotropic assay; for block of estradiol stimulation of uterine growth (in words): immature rat, FIGS. 14, 15
Experimental: The rat uterus is exquisitively sensitive to estrogen, and this hormone stimulates uterine cellular hypertrophy, hyperplasia and DNA synthesis within 24 hours following a single injection. Estradiol stimulation of nuclear Type II sites is a prerequisite for these responses. This assay includes injecting immature female rats with saline-ethanol vehicle, estradiol-17β and the test compound of interest. Control rats were injected only with saline-ethanol vehicle and estradiol-17β. The rats were sacrificed 24 hours later and the uterine wet and dry weights were determined. The wet and dry weight measurements are well defined biochemical end points of estrogen action and are a direct index of changes in cell proliferation and DNA synthesis.
estradiol stimulation in the rat uterotropic assay.

[2] = tested on: esterase; assay: Stability to esterase cleavage; format: in vitro ADME
[3] = tested on: cell growth and proliferation in normal and malignant cells; assay: Cell growth / tumor proliferation inhibition (general statement); format: cell-based
[4] = tested on: nuclear Type II estrogen binding sites; assay: Inhibition assay: [3H]estradiol binding to nuclear Type II sites (uterine nuclei from estrogen-implanted ovariectomized rats); parameters: species or system rat; details: for IC50: Table I, read-out: TYPE II INHIBITION: concentration (nM) times 10^-2 to inhibit nuclear Type II binding sites by 50%
Experimental: Tissue was dissected from host animals, weighed, rinsed in saline, and homogenized in 10 mM Tris-1.5 mM EDTA, by approximately four 30-sec bursts in a Sorval Omnimixer with intermittent cooling for about 5 min. This crude homogenate was transferred to a Kontes ground glass homogenizer and further homogenized with intermittent cooling until no tissue aggregates were visible. It was imperative that the homogenate be kept cold, about 4° C. through all homogenization steps. The final homogenate was centrifuged at 800×g for approximately 20 min to obtain the crude nuclear pellet, which was then washed by gentle resuspension in a Dounce homogenizer and then centrifuged at 800×g for approximately 7 min. The final washed nuclear pellet was resuspended in 10 mM Tris-1.5 mM EDTA in a concentration ranging from 5 to 50 mg of fresh tissue equivalents/ml. By the term "fresh tissue equivalent" is meant the amount of material which represents the initial concentration in the fresh uterine tissue.
To assess total and nonspecific binding, aliquots of the nuclear suspension were incubated at 37° C. for 30 min with various concentrations ranging from 2 to 40 nM of [^3 H]estradiol with and without a large molar excess of diethylstilbestrol. The diethylstibestrol concentration ranged from 0.6 to 12.0 μM. Following incubation, the nuclear pellets were resuspended in about 1 ml of 10 mM Tris-1.5 mM EDTA buffer and centrifuged at 800×g for about 7 min. The pellet was extracted with 1 ml of ethanol at about 30° C. for about 30 min, and counted in 4 ml of Liquifluor. Specific binding was determined by substraction of nonspecific binding; i.e., not competable by diethylstilbestrol from the total quantity of [^3 H]estradiol bound. Results were expressed as sites/cell, assuming 8 pg of DNA/cell nucleus and that each binding site binds one molecule of [^3 H]estradiol.
In order to assess the levels of this inhibitor activity in various tissue cytosols and LH-20 column chromatography fractions from these cytosols, the following inhibition assay was used. Uterine nuclei were prepared from estrogen-implanted, adult-ovariectomizedrats. The washed nuclear pellet was diluted to 10 mg of fresh uterine equivalents/ml. At this concentration the effects of the endogenous inhibitor were minimal, and nuclear Type II sites bound maximum quantities of [^3 H]estradiol. Aliquots of these nuclei and the inhibitor sample were incubated at about 4° C. for approximately 60 min in the presence of 40 nM of [^3 H]estradiol with and without 12 μM diethylstilbestrol. Under these conditions, nuclear Type II sites were quantitatively measured without interference from Type I sites. The nuclear pellets were resuspended in 1 ml of 10 mM Tris-1.5 mM EDTA and centrifuged, ethanol extracted, and counted. The results were expressed as the percentage of [^3 H]estradiol bound as compared to the buffer control, or as the percentage of inhibition where 100% bound was 0% inhibition and was equivalent to approximately 45,000 cpm.
Thus, more nuclear Type II sites are measured in dilute than in concentrated nuclei. […] The uterine nuclei were prepared as previously described in Markaverich, B. M. et al., J. Biol. Chem. 258:11663-11671 (1983), the disclosure of which is herein incorporated by reference. Briefly, uterine nuclei after preparation were diluted in 10 mM Tris, 1.5 mM EDTA buffer in final volumes equivalent to 10, 20 or 40 mg fresh uterine equivalents per ml, and assayed for estrogen binding sites by [^3 H]estradiol exchange at 37° C. for 30 minutes. Specific binding was determined by subtraction of non-specific binding, i.e., non-competable with 300-fold excess diethylstilbestrol, from the total quantity of [^3 H]estradiol bound. […] Briefly, acid-precipitated, boiled cytosol from rat uterus, mouse mammary tumor and normal mouse mammary gland was diluted as shown on FIG. 2 and evaluated for inhibitor activity. […]

[5] = tested on: MCF-7 human breast cancer cells; assay: MCF-7 cancer cell assay; format: cell-based; details: FIG. 12; 1-10 μg/ml, 6 days
Text: To assay for tumor growth sensitivity the MCF-7 human breast cancer cell line in tissue culture was used. One skilled in the art will recognize that this is an excellent model system to assess the effects of hormones and drugs on human cancer cell growth and proliferation. The MCF-7 cells have both Type I and nuclear Type II estrogen receptor sites and respond in a proliferative fashion to estrogenic hormones. Furthermore, they are inhibited by well-known anti-estrogens such as Tamoxifen. The MCF-7 cells were plated at 5×10^5 cells/dish in 30 mm petri dishes and grown in Dulbecco's Modified Eagles Medium containing about 10% charcoal stripped fetal bovine serum for approximately 48 hours. During this interval, the cells attached to the plastic dishes and then underwent exponential growth with a cell-doubling time of approximately 24 hours. The plated cells were allowed to attach for approximately 48 hours and the medium was replaced ("day zero"). The cells were allowed to grow exponentially for about 6 days. […] On day 6 the cells were harvested, counted on a hemocytometer and DNA content per dish was determined by the Burton assay (Burton, K., Biochem. J. 62:315-323, 1956). Results are expressed as cells/dish or DNA content (μg/dish) at 6 days following treatment. […]

[6] = tested on: MCF-7 human breast cancer cells; details: general knowledge statement; cited from earlier work
[7] = tested on: estradiol stimulation of uterine growth (rat uterus); details: background statement; cited from earlier work
[8] = tested on: malignant (tumor) cells; assay: Metabolism / inactivation by malignant cells; format: in vitro ADME
[9] = listed as methyl p-hydroxyphenyllactate

## CC(=O)CCc1ccc(O)cc1 [1-(4-hydroxyphenyl)-3-butanone]
[1]
  GROWTH INHIBITION (%): 96%
  block of estradiol stimulation of uterine growth (in words): antitumor proliferative activity in the uterotropic assay; also recorded: blocks estradiol stimulation of uterine growth when injected into immature rats
[2]
  stability (in words): not subject to the esterase cleavage; also recorded: more stable
[3]; culture and in vivo
  inhibition in culture and in vivo relative to MeHPLA (in words): a better inhibitor in culture and in vivo
[4]
  binding to / inhibition of nuclear Type II sites (in words): bind to Type II sites; also recorded: binds to the nuclear Type II sites with a high affinity
  IC50: 200 nM

## CCC(=O)CCc1ccc(O)cc1 [1-(4-hydroxyphenyl)-3-pentanone]
[1]
  block of estradiol stimulation of uterine growth (in words): antitumor proliferative activity in the uterotropic assay
[4]
  binding to / inhibition of nuclear Type II sites (in words): bind to Type II sites

## O=C(O)C(O)Cc1ccc(O)cc1 (centres unmarked) [3-(4-hydroxyphenyl)-2-hydroxypropionic acid, reference compound]
[5]
  inhibition of MCF-7 human breast cancer cells: did not
[1]
  GROWTH INHIBITION (%): 0%
[1]; listed as hydroxyphenyllactic acid
  block of estradiol stimulation of uterine growth (in words): higher doses of hydroxyphenyllactic acid showed some partial antagonism; also recorded: but not hydroxyphenyllactic acid
[3]
  cell growth inhibition / antitumor activity (in words): inhibits the cell growth much less effectively
[4]
  binding to / inhibition of nuclear Type II sites (in words): low binding affinity for nuclear Type II sites
  IC50: 8000 nM
[4]; vs MeHPLA
  fold lower affinity for nuclear Type II sites than methyl p-hydroxyphenyllactate: 20 fold

## CC/C(=C(\c1ccccc1)c1ccc(OCCN(C)C)cc1)c1ccccc1 [Tamoxifen]
[6]
  inhibition of MCF-7 cells by known anti-estrogens: inhibited

## CCN(CC)CCOc1ccc(C(=C(Cl)c2ccccc2)c2ccccc2)cc1 [clomiphene]
[7]
  inhibition of nuclear Type II sites associated with antagonism of uterotropic responses to estrogen: associated with antagonism of uterotropic responses to estrogen

## C[C@@H]1C[C@H]2[C@@H]3CCC4=CC(=O)C=C[C@]4(C)[C@@]3(F)[C@@H](O)C[C@]2(C)[C@@]1(O)C(=O)CO [dexamethasone]
[7]
  inhibition of nuclear Type II sites associated with antagonism of uterotropic responses to estrogen: associated with antagonism of uterotropic responses to estrogen

## COC(=O)C=Cc1ccc(O)c(O)c1 [methyl 3-(3,4-dihydroxyphenyl)-2-propenoate]
[1]
  GROWTH INHIBITION (%): 70%
[4]
  IC50: 100 nM

## COC(=O)C=Cc1ccc(O)c(OC)c1 [methyl 3-(4-hydroxy-3-methoxyphenyl)-2-propenoate]
[1]
  GROWTH INHIBITION (%): 56%
[4]
  IC50: 600 nM

## COC(=O)C(O)Cc1ccc(O)cc1 (centres unmarked) [methyl 3-(4-hydroxyphenyl)-2-hydroxypropionate]
[8]; listed as MeHPLA
  metabolism / inactivation by malignant cells (in words): malignant cells metabolize MeHPLA
[8]; [9]
  metabolism / inactivation by malignant cells (in words): tumor cells have the ability to inactivate methyl p-hydroxyphenyllactate
[5]
  inhibition of MCF-7 human breast cancer cells: inhibited MCF-7 breast cancer cells in a similar dose-dependent fashion
[1]
  GROWTH INHIBITION (%): 90%
[1]; listed as MeHPLA
  block of estradiol stimulation of uterine growth (in words): block estrogen stimulation of normal cell growth such as that in the rat uterus
[1]; [9]
  block of estradiol stimulation of uterine growth (in words): block estradiol stimulation of uterine growth in the immature rat
[3]; listed as MeHPLA
  cell growth inhibition / antitumor activity (in words): cell growth and proliferation are inhibited; also recorded: cell growth and proliferation of non-malignant tissues are slowed down or stopped
[4]
  IC50: 80 nM
[4]; competition analysis, FIGS. 8 and 9, vs HPLA
  fold more effective in inhibiting [3H]estradiol binding to nuclear Type II sites than the free acid (HPLA): approximately 20 fold

## COC(=O)COc1ccc(O)cc1 [methyl (4-hydroxyphenoxy) acetate, methyl (4-hydroxyphenoxy)acetate]
[1]
  GROWTH INHIBITION (%): 70%
[4]
  IC50: 80 nM

## COc1ccc2c(c1)CCC(c1ccccc1)=C2c1ccc(OCCN2CCCC2)cc1 [nafoxidine]
[7]
  inhibition of nuclear Type II sites associated with antagonism of uterotropic responses to estrogen: associated with antagonism of uterotropic responses to estrogen

## CC(=O)[C@H]1CC[C@H]2[C@@H]3CCC4=CC(=O)CC[C@]4(C)[C@H]3CC[C@]12C [progesterone]
[7]
  inhibition of nuclear Type II sites associated with antagonism of uterotropic responses to estrogen: associated with antagonism of uterotropic responses to estrogen
